The results in this text go back to patent US4835185A, “Immunomodulator for improving commercial performance of domestic animals” (Iowa State University Research Foundation, Inc., priority 1987, dated 1989).

One data set concerns white blood cells. The data set is described as follows: White blood cell number and differential, cattle (experiment 3). It is filed as in vivo, castrated male cattle. On the procedure:
In experiment 3 72 castrated male cattle were allotted to 12 pens of 6 animals each. Three pens were assigned to each treatment: 0.0% KIC, 0.02% KIC, 0.07% KIC, and 0.20% KIC. Animals were fed ad libitum the respective diets for 6 weeks. At the end of the 6-233k periods, 100-ml blood samples were collected from each animal, and lymphocyte and neutrophil function were evaluated.
The basal cattle diet (experiment 3) consisted of 49% corn, 24% corn-cobs, 18% soybean meal, 7% molasses, 1.3% limestone, 0.25% dicalcium phosphate, 0.23% salt, 0.02% trace-mineral premix, and 0.11% vitamin premix. The basal diet was supplemented with w/w 0.05% control pellets, 0.04% KIC pellets, or 0.4% KIC pellets. All animals consumed ~10 kg of feed per day, resulting in ~0, 2, 7, or 20 g of Ca-KIC consumed per animal per day or 0, 0.02, 0.07, and 0.2% KIC of the total diet.
KIC pellets were made by mixing zein, ethanol, KIC, limestone, bentonite, and water in a ratio of […]. This mixture was extruded through a die of 15 mm directly into a vat of liquid nitrogen. The shattered pellets were spread out and allowed to air-dry for 2 days. The pellets were coated with zein (2% w/w) by spraying with a 30% zein solution made in 80% ethanol. The pellets again were air-dryed. Control pellets were made similarly to the KIC pellets except that the mixture was zein, limestone, ethanol, bentonite, and water in a ratio of 12:12:7.5:2.7:1. When KIC pellets were placed in the rumen (nylon bag technique), […] of the KIC added was present in the bags after 24 hr of rumen fermentation. It was estimated that uncoated KIC was 95% degraded in the rumen.
Blood was collected by jugular venapuncture into acid-citrate-dextrose anticoagulant. Lymphocytes and neutrophils were isolated, and lymphocyte blastogenesis and neutrophil function evaluated. KIC was obtained from SOBAC, Paris, France. Zein was purchased from Freeman Industries, Tuckahoe, NY. Each experiment was statistically analyzed by analysis of variance. In sheep experiments, individual animals were the experimental units, whereas pen means were analyzed in the cattle experiment.
^2 Total white blood cell number (WBC) is the cells per mm^3.

The test system of another data set is plasma cortisol. The data set is described as follows: Plasma cortisol in pigs after test meals. It is filed as in vivo. On the procedure:
To determine if KIC could acutely alter cortisol concentrations, young pigs were fed meals supplemented with leucine or KIC and plasma cortisol was measured.
In experiment 1, sixteen female pigs weighing 20-30 kg were used. Seven days before study, catheters were surgically placed in the right atria for blood sampling. Animals were housed in individual cages during the recovery period and had free access to water. Preceding the experiment, animals were fed twice daily a basal diet (2% of body weight per feeding). The basal diet consisted of a corn-soybean mix, adequate in all minerals and vitamins and containing approximately 14% crude protein. Test meals were formulated by additions to a basal diet. Five animals received the basal diet (control); five animals received the leucine meal, which had 2% leucine added to the basal diet; and six animals received the KIC diet, which had 2% KIC (sodium salt equivalent to 1.7% free acid) added to the basel diet. Studies were begun between 0800 and 0900 h after a 24-hr fast. Basal blood samples were taken at -20, -10 and -5 min. Animals were then offered 100 g of their respective test meal (time 0). Pigs were included in the study only if they consumed the entire meal in the first 20 min. […] Plasma was separated, Trasylol (FBA Pharmaceuticals, New York, NY) added (50 ul/ml), and plasma stored at -70 C. until analyzed.
(§1) Cortisol was measured by coated tube kits (Gammacoat, Travenol-Genetech Diagnostics, Cambridge, MA). Leucine and KIC were measured by high pressure liquid chromatography. Crystalline leucine was obtained from Sigma Chemical (St. Louis, MO) and KIC-sodium was obtained from SOBAC (Paris, France). Statistical analysis of the individual pig responses was conducted on mean plasma concentrations before the meal (-20 to 0 min) and after the meal (120 to 240 min). When the overall treatment F-value was significant, differences between individual treatments were determined using the pooled SEM and a T-test.

Details of data set [1]: species or system pigs. The conditions noted are these: pig, in vivo.
Excerpt: In experiment 1, sixteen female pigs weighing 20-30 kg were used. Seven days before study, catheters were surgically placed in the right atria for blood sampling. Animals were housed in individual cages during the recovery period and had free access to water. Preceding the experiment, animals were fed twice daily a basal diet (2% of body weight per feeding). The basal diet consisted of a corn-soybean mix, adequate in all minerals and vitamins and containing approximately 14% crude protein. Test meals were formulated by additions to a basal diet. Five animals received the basal diet (control); five animals received the leucine meal, which had 2% leucine added to the basal diet; and six animals received the KIC diet, which had 2% KIC (sodium salt equivalent to 1.7% free acid) added to the basel diet. Studies were begun between 0800 and 0900 h after a 24-hr fast. Basal blood samples were taken at -20, -10 and -5 min. Animals were then offered 100 g of their respective test meal (time 0). Pigs were included in the study only if they consumed the entire meal in the first 20 min. Blood was sampled every 30 min from 120 to 240 min. Plasma was separated, Trasylol (FBA Pharmaceuticals, New York, NY) added (50 ul/ml), and plasma stored at -70 C. until analyzed.
as §1

Structures are written as SMILES.

`CC(C)CC(=O)C(=O)O` [KIC, alpha-ketoisocaproate]: the “% SEG” value with white blood cells (Exp. 3, oral coated 0.02% KIC (control 28)) is listed as 29% of Total WBC; in the data set with white blood cells (Exp. 3, oral coated 0.07% KIC (control 28)), 24% of Total WBC; with white blood cells (Exp. 3, oral coated 0.20% KIC (control 28)), 24% of Total WBC. Moreover, the “% LYM” value with white blood cells (Exp. 3, oral coated 0.02% KIC (control 52)) is recorded as 63% of Total WBC; with white blood cells (Exp. 3, oral coated 0.07% KIC (control 52)), 69% of Total WBC; in the data set on white blood cells (Exp. 3, oral coated 0.20% KIC (control 52)) it was 52% of Total WBC. For the same molecule, the “% EOS” value in the data set with white blood cells (Exp. 3, oral coated 0.02% KIC (control .7)) is listed as “.9% of Total WBC”; in the data set with white blood cells (Exp. 3, oral coated 0.07% KIC (control .7)), “.7% of Total WBC”; with white blood cells (Exp. 3, oral coated 0.20% KIC (control .7)), 1.1% of Total WBC. Besides, the “decrease in cortisol concentration” value with plasma cortisol (2% KIC, by 240-300 minutes after the meal, p<0.01) is recorded as 40%. Also, in the data set on plasma cortisol (2% in meal, control -0.09), the “Plasma cortisol, Change” value was -1.99 µg/dL. Besides, in the data set on plasma cortisol (2% in meal, pre: leucine 2.8, KIC 4.7, pooled SEM 0.49), the “Plasma cortisol, Post” value turned out to be 2.9 µg/dL. Also, the “Plasma KIC, Change” value in data set [1] was 56 µM. For the same molecule, the “Plasma leucine, Change” value in data set [1] came out at 182 µM. Also, the plasma leucine concentration result in data set [1] is “doubling”. Moreover, the “Plasma KIC, Post” value in data set [1] (240 min) is 102 µM. Moreover, the “Plasma leucine, Post” value in data set [1] (240 min) amounted to 312 µM.
